Reference: US10736822B2, “Root canal treatment material and root canal treatment kit” (FUJIFILM Corporation, priority 2016, dated 2020)

Experiment: Evaluation of curability under moist environment (distilled water added, Vicat needle)
Format: physicochemical
Conditions: conclusion in words from Table 1
Procedure: The curability of each of the root canal treatment materials according to the examples and the comparative examples was evaluated through the following method. First, a cylindrical mold having an inner diameter of 5 mm and a height of 1 mm was filled with each of the root canal treatment materials which was then subjected to light irradiation with a light irradiator (“G-Light Prima II Plus” manufactured by GC) for 40 seconds to produce a test piece. […] A needle mark was visually checked and evaluated according to the following criteria.
The curability of each of the root canal treatment materials according to the examples and the comparative examples was evaluated in a moist environment through the following method. First, 15 μL of distilled water was added to 0.15 g of each of the root canal treatment materials which was then subjected to light irradiation with the light irradiator (“G-Light Prima II Plus” manufactured by GC) for 20 seconds to produce a test piece. The curability of each of the obtained test pieces was evaluated in the same manner as in <Evaluation of Curability> described above.

Structure (SMILES): C=CC(=O)NCCCOCC(COCCCNC(=O)C=C)(COCCCNC(=O)C=C)NC(=O)C=C [compound (I)]
- curability in a moist environment: particularly excellent curability in a moist environment
